Laboratory results reported in patent US12479847B2 (DANA-FARBER CANCER INSTITUTE, INC., priority 2019, dated 2025).
Like-named read-outs stand apart in the source and are kept apart here.

Key:
Experiment in all cases: KINOMEscan (ScanMAX) kinase profiling
Assay type in all cases: binding
[1] = molecular target: T1, panel of 468 kinases (Homo sapiens, UniProt O15111); conditions: IKK-alpha; 1 μM; read-out: % control
T1 construct: purchased KINOMEscan (ScanMAX) service
T1 sequence (O15111 1-745): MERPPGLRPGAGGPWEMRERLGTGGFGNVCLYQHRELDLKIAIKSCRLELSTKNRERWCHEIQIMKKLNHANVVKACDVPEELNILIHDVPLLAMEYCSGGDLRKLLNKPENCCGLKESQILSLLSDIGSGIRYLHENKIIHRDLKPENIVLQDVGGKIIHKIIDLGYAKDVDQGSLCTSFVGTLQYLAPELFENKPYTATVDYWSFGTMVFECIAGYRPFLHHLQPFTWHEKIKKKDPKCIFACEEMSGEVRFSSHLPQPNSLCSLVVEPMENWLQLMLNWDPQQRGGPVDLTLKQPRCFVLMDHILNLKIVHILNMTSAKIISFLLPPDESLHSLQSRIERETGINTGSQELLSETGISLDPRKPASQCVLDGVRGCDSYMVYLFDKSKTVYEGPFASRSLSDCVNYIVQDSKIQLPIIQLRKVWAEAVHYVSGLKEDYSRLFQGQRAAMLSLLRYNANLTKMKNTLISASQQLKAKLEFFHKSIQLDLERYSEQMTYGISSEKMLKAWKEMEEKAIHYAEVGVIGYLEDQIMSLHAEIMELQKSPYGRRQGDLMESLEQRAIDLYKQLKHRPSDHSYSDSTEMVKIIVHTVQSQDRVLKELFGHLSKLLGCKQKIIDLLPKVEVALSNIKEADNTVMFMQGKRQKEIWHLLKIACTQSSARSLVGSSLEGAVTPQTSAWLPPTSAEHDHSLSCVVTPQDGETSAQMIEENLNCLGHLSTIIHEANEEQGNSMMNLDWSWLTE

[2] = molecular target: T2, panel of 468 kinases (Homo sapiens, UniProt Q9BZL6); conditions: PRKD2; 1 μM; read-out: % control
T2 construct: purchased KINOMEscan (ScanMAX) service
T2 sequence (Q9BZL6 1-878): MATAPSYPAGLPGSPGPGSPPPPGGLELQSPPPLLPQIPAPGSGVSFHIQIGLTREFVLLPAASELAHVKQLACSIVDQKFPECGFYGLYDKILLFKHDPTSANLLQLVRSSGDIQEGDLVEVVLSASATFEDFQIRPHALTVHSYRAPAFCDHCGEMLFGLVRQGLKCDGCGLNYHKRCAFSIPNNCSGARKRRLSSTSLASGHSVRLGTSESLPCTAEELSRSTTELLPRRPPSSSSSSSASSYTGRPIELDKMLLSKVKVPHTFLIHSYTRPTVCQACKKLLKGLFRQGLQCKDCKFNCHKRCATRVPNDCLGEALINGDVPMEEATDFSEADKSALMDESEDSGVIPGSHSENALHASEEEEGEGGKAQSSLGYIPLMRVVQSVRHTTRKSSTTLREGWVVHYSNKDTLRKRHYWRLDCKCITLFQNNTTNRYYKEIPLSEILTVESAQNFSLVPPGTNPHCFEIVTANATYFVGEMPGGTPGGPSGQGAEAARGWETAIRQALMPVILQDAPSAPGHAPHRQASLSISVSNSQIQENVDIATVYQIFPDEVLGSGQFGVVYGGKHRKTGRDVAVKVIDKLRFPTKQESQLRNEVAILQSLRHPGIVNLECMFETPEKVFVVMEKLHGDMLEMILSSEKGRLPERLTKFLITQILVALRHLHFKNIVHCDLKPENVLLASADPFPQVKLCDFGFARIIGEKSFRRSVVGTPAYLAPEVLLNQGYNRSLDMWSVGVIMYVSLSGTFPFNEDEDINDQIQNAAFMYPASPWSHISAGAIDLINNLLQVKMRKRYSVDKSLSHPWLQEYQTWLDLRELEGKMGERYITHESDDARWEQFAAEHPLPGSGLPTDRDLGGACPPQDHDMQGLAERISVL

[3] = molecular target: T3, panel of 468 kinases (Homo sapiens, UniProt P00519); conditions: 1 μM, read-out: % control
T3 construct: purchased KINOMEscan (ScanMAX) service
T3 sequence (P00519 whole entry): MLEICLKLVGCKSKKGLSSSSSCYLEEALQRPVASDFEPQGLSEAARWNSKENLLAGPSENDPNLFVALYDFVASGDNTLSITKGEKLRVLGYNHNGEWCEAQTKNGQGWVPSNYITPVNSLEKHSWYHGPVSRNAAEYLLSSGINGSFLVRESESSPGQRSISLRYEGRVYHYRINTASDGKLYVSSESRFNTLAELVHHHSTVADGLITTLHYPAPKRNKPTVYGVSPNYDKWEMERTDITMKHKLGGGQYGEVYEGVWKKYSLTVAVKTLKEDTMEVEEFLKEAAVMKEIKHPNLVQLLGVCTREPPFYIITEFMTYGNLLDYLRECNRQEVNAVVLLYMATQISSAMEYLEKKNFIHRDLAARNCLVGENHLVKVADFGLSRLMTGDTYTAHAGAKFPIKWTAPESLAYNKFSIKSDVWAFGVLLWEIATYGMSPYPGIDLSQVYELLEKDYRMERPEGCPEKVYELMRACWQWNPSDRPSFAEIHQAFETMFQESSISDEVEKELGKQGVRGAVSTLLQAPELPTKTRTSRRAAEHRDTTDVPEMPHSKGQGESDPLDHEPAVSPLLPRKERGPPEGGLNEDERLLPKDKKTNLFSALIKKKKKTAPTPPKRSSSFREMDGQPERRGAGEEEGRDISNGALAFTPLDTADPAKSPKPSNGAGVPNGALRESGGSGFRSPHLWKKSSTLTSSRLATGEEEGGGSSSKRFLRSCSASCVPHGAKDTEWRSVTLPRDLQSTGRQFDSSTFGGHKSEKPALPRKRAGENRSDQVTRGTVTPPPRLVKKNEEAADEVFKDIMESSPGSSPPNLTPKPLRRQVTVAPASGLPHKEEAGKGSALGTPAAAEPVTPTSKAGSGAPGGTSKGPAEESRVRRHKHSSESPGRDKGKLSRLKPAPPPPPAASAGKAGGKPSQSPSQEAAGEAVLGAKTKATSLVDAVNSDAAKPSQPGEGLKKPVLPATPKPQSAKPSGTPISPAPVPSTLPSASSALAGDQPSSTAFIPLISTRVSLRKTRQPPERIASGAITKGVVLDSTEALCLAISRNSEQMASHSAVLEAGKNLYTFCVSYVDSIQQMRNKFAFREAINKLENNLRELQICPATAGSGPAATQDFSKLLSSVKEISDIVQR

[4] = molecular target: T4, panel of 468 kinases (Homo sapiens, UniProt P19784); conditions: CSNK2A2; 1 μM; read-out: % control
T4 construct: purchased KINOMEscan (ScanMAX) service
T4 sequence (P19784 whole entry): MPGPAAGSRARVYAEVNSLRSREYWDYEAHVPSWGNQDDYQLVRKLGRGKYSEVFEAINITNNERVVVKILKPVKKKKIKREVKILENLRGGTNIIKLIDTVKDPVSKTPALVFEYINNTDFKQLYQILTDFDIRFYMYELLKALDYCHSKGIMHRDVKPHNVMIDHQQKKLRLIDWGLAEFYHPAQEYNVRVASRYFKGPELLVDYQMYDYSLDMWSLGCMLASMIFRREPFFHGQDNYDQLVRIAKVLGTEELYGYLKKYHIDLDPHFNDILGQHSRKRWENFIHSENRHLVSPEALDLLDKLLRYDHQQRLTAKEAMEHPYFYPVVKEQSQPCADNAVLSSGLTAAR

[5] = molecular target: T5, panel of 468 kinases (Homo sapiens, UniProt Q9BXA7); conditions: TSSK1B; 1 μM; read-out: % control
T5 construct: purchased KINOMEscan (ScanMAX) service
T5 sequence (Q9BXA7 1-367): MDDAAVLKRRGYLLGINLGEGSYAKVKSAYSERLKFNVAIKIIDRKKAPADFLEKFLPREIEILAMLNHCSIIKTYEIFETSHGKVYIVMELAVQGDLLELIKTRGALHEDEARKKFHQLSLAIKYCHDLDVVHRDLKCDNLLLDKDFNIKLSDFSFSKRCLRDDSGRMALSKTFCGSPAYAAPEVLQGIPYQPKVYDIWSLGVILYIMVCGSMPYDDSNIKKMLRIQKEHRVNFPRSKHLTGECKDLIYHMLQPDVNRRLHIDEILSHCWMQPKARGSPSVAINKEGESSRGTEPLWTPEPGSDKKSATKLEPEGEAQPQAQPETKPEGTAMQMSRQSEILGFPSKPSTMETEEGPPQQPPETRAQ

[6] = molecular target: T6, panel of 468 kinases (Homo sapiens, UniProt P00533, DEL752-759); conditions: EGFR(S752-I759del); 1 μM; read-out: % control
T6 construct: purchased KINOMEscan (ScanMAX) service
T6 sequence (P00533 with tags, fused parts or gaps DEL752-759): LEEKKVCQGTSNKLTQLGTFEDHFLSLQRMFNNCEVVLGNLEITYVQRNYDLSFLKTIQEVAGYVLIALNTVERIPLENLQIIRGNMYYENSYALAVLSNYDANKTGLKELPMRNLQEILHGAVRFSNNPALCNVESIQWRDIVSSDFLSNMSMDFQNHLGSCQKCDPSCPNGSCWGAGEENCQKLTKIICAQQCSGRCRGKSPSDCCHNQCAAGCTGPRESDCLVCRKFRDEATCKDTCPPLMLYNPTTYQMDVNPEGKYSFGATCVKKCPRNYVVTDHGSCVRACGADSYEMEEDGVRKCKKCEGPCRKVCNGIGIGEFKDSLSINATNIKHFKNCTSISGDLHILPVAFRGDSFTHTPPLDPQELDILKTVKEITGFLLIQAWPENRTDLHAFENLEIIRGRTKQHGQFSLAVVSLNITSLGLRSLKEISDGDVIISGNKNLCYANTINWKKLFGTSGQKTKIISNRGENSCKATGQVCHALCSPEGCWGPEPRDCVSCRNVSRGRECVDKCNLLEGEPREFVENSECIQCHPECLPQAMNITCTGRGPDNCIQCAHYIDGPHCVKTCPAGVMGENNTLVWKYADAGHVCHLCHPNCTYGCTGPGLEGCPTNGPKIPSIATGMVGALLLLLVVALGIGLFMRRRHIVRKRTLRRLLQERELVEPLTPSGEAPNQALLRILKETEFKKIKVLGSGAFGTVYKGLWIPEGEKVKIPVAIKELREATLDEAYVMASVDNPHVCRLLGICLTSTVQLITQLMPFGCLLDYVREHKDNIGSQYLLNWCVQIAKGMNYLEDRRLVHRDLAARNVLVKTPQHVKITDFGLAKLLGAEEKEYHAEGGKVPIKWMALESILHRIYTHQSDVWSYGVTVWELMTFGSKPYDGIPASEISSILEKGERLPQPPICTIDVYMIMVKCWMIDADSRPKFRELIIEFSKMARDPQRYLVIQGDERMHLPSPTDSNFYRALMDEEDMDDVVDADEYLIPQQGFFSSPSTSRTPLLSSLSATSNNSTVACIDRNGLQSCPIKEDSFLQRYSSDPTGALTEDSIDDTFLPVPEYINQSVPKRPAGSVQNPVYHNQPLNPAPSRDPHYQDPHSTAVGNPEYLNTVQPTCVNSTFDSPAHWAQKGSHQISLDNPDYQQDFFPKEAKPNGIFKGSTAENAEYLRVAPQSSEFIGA

[7] = molecular target: T7, panel of 468 kinases (Homo sapiens, UniProt P53779); conditions: JNK3; 1 μM; read-out: % control
T7 construct: purchased KINOMEscan (ScanMAX) service
T7 sequence (P53779 whole entry): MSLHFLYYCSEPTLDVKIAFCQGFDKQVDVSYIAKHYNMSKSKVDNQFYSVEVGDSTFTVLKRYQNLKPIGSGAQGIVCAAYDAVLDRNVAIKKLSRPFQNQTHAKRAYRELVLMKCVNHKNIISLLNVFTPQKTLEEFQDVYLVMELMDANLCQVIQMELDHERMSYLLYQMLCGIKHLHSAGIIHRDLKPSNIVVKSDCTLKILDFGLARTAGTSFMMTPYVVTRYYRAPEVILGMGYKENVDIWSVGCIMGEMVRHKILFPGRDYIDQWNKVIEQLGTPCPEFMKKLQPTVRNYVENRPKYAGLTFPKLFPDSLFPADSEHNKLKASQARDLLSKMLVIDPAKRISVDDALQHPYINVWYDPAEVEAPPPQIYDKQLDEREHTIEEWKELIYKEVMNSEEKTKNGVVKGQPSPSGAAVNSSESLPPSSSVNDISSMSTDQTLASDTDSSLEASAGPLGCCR

[8] = molecular target: T8, panel of 468 kinases (Homo sapiens, UniProt P49674); conditions: CSNK1E; 1 μM; read-out: % control
T8 construct: purchased KINOMEscan (ScanMAX) service
T8 sequence (P49674 whole entry): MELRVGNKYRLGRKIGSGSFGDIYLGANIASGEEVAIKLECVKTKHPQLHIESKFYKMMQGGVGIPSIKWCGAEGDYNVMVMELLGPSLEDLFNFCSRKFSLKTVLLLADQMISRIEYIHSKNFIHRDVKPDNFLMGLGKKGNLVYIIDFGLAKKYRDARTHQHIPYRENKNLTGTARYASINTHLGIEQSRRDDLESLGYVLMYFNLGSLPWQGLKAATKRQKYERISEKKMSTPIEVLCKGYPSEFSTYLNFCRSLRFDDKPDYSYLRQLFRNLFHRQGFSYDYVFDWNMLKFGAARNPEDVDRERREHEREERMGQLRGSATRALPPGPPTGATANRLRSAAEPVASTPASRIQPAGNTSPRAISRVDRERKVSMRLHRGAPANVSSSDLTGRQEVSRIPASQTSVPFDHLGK

[9] = molecular target: T9, panel of 468 kinases (Homo sapiens, UniProt Q13523); conditions: PRP4; 1 μM; read-out: % control
T9 construct: purchased KINOMEscan (ScanMAX) service
T9 sequence (Q13523 whole entry): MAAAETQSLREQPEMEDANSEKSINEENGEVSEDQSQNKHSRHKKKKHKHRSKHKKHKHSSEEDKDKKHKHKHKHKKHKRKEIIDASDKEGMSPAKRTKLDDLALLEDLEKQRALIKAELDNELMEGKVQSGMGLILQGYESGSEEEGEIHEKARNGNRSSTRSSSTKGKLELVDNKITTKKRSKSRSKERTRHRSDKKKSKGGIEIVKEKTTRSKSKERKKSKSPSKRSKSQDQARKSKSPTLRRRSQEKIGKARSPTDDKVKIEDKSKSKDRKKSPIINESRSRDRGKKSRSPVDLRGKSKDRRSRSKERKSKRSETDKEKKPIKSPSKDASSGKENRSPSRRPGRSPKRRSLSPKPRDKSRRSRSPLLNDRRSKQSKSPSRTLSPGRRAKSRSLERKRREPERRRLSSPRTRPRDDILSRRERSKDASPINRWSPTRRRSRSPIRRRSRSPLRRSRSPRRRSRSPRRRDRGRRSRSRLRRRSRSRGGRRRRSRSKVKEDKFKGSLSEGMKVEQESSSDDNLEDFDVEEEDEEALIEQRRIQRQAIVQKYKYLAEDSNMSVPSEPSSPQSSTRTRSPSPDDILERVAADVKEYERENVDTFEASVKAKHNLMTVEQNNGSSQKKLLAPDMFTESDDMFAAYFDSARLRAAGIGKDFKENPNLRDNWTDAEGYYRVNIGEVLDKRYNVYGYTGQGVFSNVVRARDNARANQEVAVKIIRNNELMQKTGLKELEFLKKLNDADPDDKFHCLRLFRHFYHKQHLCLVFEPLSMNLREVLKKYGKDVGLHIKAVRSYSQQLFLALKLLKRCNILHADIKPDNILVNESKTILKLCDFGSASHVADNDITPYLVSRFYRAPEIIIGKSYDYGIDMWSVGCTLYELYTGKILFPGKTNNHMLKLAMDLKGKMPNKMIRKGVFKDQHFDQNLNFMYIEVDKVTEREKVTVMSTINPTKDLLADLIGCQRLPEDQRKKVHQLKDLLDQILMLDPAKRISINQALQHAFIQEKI

With CNc1nc(Nc2ccc(C(=O)N3CCC(N4CCOCC4)CC3)c3c2OCO3)nc2[nH]cc(Cl)c12 [Compound 75, (7-((5-chloro-4-(methylamino)-7H-pyrrolo[2,3-d]pyrimidin-2-yl)amino)benzo[d][1,3]dioxol-4-yl)(4-morpholinopiperidin-1-yl)methanone] the remaining binding at 1 µM [1] was 65%, the remaining binding at 1 µM [2] was 2.2% and the remaining binding at 1 µM ([3]; ABL1-nonphosphorylated) was 94%. The remaining binding at 1 µM ([3]; ABL1-phosphorylated) was 80%, the remaining binding at 1 µM [4] was 49% and the remaining binding at 1 µM [5] was 49%. For the same compound, the remaining binding at 1 µM [6] was 94%, the remaining binding at 1 µM [7] was 0.25% and the remaining binding at 1 µM [8] was 30%. It also gave a remaining binding at 1 µM [9] of 100%.

CNc1nc(Nc2ccc(S(=O)(=O)N3CCC(N4CCOCC4)CC3)cc2OC)nc2[nH]cc(Cl)c12 [Compound 12, 5-chloro-N2-(2-methoxy-4-((4-morpholinopiperidin-1-yl)sulfonyl)phenyl)-N4-methyl-7H-pyrrolo[2,3-d]pyrimidine-2,4-diamine] showed a remaining binding at 1 µM [1] of 76%, a remaining binding at 1 µM [2] of 37% and a remaining binding at 1 µM ([3]; ABL1-nonphosphorylated) of 80%. For the same compound, the remaining binding at 1 µM ([3]; ABL1-phosphorylated) was 72%, the remaining binding at 1 µM [4] was 97% and the remaining binding at 1 µM [5] was 72%. It also gave a remaining binding at 1 µM [6] of 100%, a remaining binding at 1 µM [7] of 16% and a remaining binding at 1 µM [8] of 18%. For the same compound, the remaining binding at 1 µM [9] was 100%.

CNc1nc(Nc2ccc(P3(=O)CCN(C4CCOCC4)CC3)cc2OC)nc2[nH]cc(Cl)c12 [Compound 77, 4-(4-((5-chloro-4-(methylamino)-7H-pyrrolo[2,3-d]pyrimidin-2-yl)amino)-3-methoxyphenyl)-1-(tetrahydro-2H-pyran-4-yl)-1,4-azaphosphinane 4-oxide] showed a remaining binding at 1 µM [1] of 81%, a remaining binding at 1 µM [2] of 14% and a remaining binding at 1 µM ([3]; ABL1-nonphosphorylated) of 92%. It also gave a remaining binding at 1 µM ([3]; ABL1-phosphorylated) of 80%, a remaining binding at 1 µM [4] of 80% and a remaining binding at 1 µM [5] of 33%. For the same compound, the remaining binding at 1 µM [6] was 100%, the remaining binding at 1 µM [7] was 0.9% and the remaining binding at 1 µM [8] was 15%. For the same compound, the remaining binding at 1 µM [9] was 100%.
